Measured values as given in patent publication US6989375B2, “Enhanced expression of transgenes” (priority 1996, dated 2006).

Legend:
[1] = tested on: subcutaneous H1299 tumors; test: In vivo CDDP-induced enhancement of β-gal gene expression in subcutaneous tumors; set-up: species or system nude mice
Method: Subcutaneous (SC) tumor nodules were created by injecting 1×10^7 H1299 cells suspended in 100 μl of PBS into the dorsal flank SC tissue of nude mice (nu/nu, Charles River, Wilmington, Mass.) that had received 350 Rads of total body irradiation. Tumors, approximately 250 mm^3 in size, consistently formed within 3 to 4 weeks of tumor cell implantation. Intratumoral injections of Ad/CMV/β-gal (5×10^8 viral particles) were done at 0, 2, 4, and 6 days following an intraperitoneal injection of CDDP (5 μg/g body weight in 100 μl of PBS) or PBS only (n=4 per groups). The tumors were excised 48 hours after adenovirus injection, washed in cold PBS, embedded in tissue freezing medium (Fisher Scientific, Houston, Tex.) and snap-frozen by immersion in 2-methylbutane which was chilled over liquid nitrogen. Serial frozen sections (8μ, thick) of the tumor mass obtained at 2-mm intervals were fixed and stained with X-gal as previously described (Ponder et al., 1991) and then counterstained with nuclear fast red (PolyScientific, Bay Shore, N.Y.). Quantitative assessment of β-gal gene expression (blue cells) was determined by digital image analysis (Samba 4000, Immuno Software, Version 3.0; Image Products International, Inc., Chantilly, Va.) for each tumor section. In vivo β-gal gene transduction of tumor masses was calculated as the mean of the percentage of blue cells per surface area of representative sections. Tumor-bearing animals receiving intraperitoneal injection of PBS and subsequent intratumoral injection of Ad/CMV/β-gal at identical time points, served as controls. The magnitude of enhancement was calculated by dividing values from CDDP and Ad/CMV/β-gal treated tumors by values from Ad/CMV/β-gal control treated tumors.

H460 cells = test: β-gal expression by X-gal staining after Ad/CMV/β-gal infection of CDDP-treated cells; type: cell-based, human
Method: (§1) Gene Delivery Protocol: In vitro gene delivery was performed by incubating cells in six-well plates (Falcon Plastics, Lincoln Park, N.J.) for two hours with Adv/CMV/β-gal in appropriate medium supplemented with 2% FCS. The multiplicity of infection (MOI: number of viral particles per target cell) was based on cell counts of untreated wells. Fresh, complete medium with the appropriate concentration of FCS was then added to the wells at the end of the infection period and cells were then incubated for 20 hours at 37° C., 5% CO2. After washing the cells with ice cold PBS, the cells were fixed with ice-cold 1.25% glutaraldehyde and stained with X-gal (5-bromo-4-chloro-3-indolyl-β-d-galactoside; Gibco BRL) as previously described (MacGregor et al., 1987). The transduction efficiency by Adv/CMV/β-gal was determined by the percentage of positive stained cells (blue) for β-galactosidase activity (1000 cells counted per well).
Time Course and Dose Response: To determine the time course of enhancement, H1299 and H460 cells were seeded in 6-well plates (2×10^5 cells/2 mls/well). After an overnight incubation period (37° C., 5% CO2), the initial medium was replaced with freshly prepared media (2 ml) containing 0.062 μg/ml CDDP (Sigma Chemicals, St. Louis, Mo.) (CDDP was prepared fresh by dissolving in distilled water) and the cells were then incubated for 24 hours at 37° C., with 5% CO2. CDDP-treated cells were then washed twice with PBS and subsequently infected with Ad/CMV/β-gal (MOI=1 for H1299 and MOI=5 for H460) on days 0, 1, 2, 3, 4, 5 or 6 following CDDP removal, to determine the time point at which maximal enhancement of expression was occurring. To establish the dose of CDDP needed to produce maximum enhancement, the cells were treated with different concentrations of CDDP (serial, 1:4 dilutions, ranging from 4 μg/ml to 0.0002 μg/ml, 5 ml per 60 mm dish) for 24 hours and subsequently incubated with Ad/CMV/β-gal 48 hours after removal of CDDP. […]

[2] = tested on: p53 protein in H1299 cells; test: p53 immunocytochemical staining; type: cell-based, human; settings: 24 hrs after p53 gene transfer (MOI=5); prior CDDP exposure
Method: The infected cells were fixed 3.8% formalin at 12 and 24 hrs after transfection with Adv/CMV/p53 (MOI=5) with or without prior CDDP exposure and treated with 3% H2O2 in methanol for 5 minutes. The Vectastain kit (Vector Laboratories, Burlingana, Calif.) was used for the immunocytochemical staining. The primary antibody used was the mouse monoclonal anti-p53 antibody Pab 1801 (Oncogene Science, Manhasset, N.Y.). The secondary antibody was the biotinylated anti-mouse IgG antibody (Vector Laboratories). The avidin-biotin-peroxidase complex (ABC) kit was used to detect the antigen-antibody complex. The cells were counterstained with Harris Hematoxylin (Sigma, St. Louis, Mo.) and mounted with cover slips using Cytoseal 60.

H1299 cells [3] = test: Cell proliferation assay (daily cell counts); type: cell-based, human; settings: for Increased inhibition of tumor proliferation compared to cells transfected with Adv/CMV/p53 only: CDDP 48 hrs prior to Adv/CMV/p53 (MOI 5)
Method: H1299 cells were exposed to CDDP (0.062 μg/ml of medium) for 24 hrs. Cells were then washed twice with PBS, trypsinized and seeded in 6-well plates (10^5 cells/well). Forty eight hours later, cells were infected with Ad/CMV/p53 at the multiplicity of infection (MOI) of 5. Daily cell counts were performed for 5 days following transfection to study the tumor suppression effect of the combination of sequential CDDP and adenovirus-mediated p53 gene transfer. Controls consisted of untreated cells or cells exposed to CDDP only, cells transfected with Ad/CMV/p53 only and cells transfected with d1312 (similar MOI) with or without prior CDDP treatment.

H1299 cells [4] = test: β-gal expression by X-gal staining after Ad/CMV/β-gal infection of agent-treated cells; type: cell-based, human
Method: as §1
Time Course and Dose Response: To determine the time course of enhancement, H1299 and H460 cells were seeded in 6-well plates (2×10^5 cells/2 mls/well). After an overnight incubation period (37° C., 5% CO2), the initial medium was replaced with freshly prepared media (2 ml) containing 0.062 μg/ml CDDP (Sigma Chemicals, St. Louis, Mo.) (CDDP was prepared fresh by dissolving in distilled water) and the cells were then incubated for 24 hours at 37° C., with 5% CO2. CDDP-treated cells were then washed twice with PBS and subsequently infected with Ad/CMV/β-gal (MOI=1 for H1299 and MOI=5 for H460) on days 0, 1, 2, 3, 4, 5 or 6 following CDDP removal, to determine the time point at which maximal enhancement of expression was occurring. To establish the dose of CDDP needed to produce maximum enhancement, the cells were treated with different concentrations of CDDP (serial, 1:4 dilutions, ranging from 4 μg/ml to 0.0002 μg/ml, 5 ml per 60 mm dish) for 24 hours and subsequently incubated with Ad/CMV/β-gal 48 hours after removal of CDDP. To study if exposure of malignant cells to different classes of antineoplastic agents would lead to a similar elevation of gene expression, H1299 cells were treated with vincristine (Eli Lilly and Co, Indianapolis, Ind.), methotrexate (Lederle Pharmaceuticals, Pearl River, N.Y.), 5-fluorouracil (SoloPak Laboratories, Elk Grove Village, Ill.), epotoside (Bristol Laboratories, Princeton, N.J.) and transplatin (the isomer of CDDP that has no anticancer activity, Sigma Chemical, St. Louis, Mo.) in the similar fashion as CDDP treatment and then infected with Ad/CMV/β-gal 48 hours after removal of drug-containing media. H1299 cells were treated with 2, 4, 8, or 16 Grey (Gy) of ionizing irradiation and then similarly infected 72 hours after irradiation. Untreated cells that were similarly infected, served as controls.

[5] = 24 h exposure, infected 48 hours after CDDP removal
[6] = CDDP at 0.0039 and 1 μg/ml, infected 48 hours after CDDP removal

N.N.[Cl][Pt][Cl] [CDDP, cis-dichlorodimminocisplatin]
Percentage of positively stained cells in tumors ([1]; Ad/CMV/β-gal injected 2 days after CDDP 5 μg/g ip (CDDP) or PBS (Ad/CMV/β-gal control)): 46.0±4.3%
Percentage of positively stained cells in tumors ([1]; Ad/CMV/β-gal injected 4 days after CDDP 5 μg/g ip (CDDP) or PBS (Ad/CMV/β-gal control)): 70.2±11%
Percentage of positively stained cells in tumors ([1]; Ad/CMV/β-gal injected 6 days after CDDP 5 μg/g ip (CDDP) or PBS (Ad/CMV/β-gal control)): 23.4±5%
Change in β-gal gene expression ([1]; CDDP 5 μg/g ip and Ad/CMV/β-gal concurrently administered (day 0)): no change
Fold increase of positively stained cells over respective control ([1]; gene transfer 2 days after CDDP administration): 1.6 fold
Fold increase of positively stained cells over respective control ([1]; gene transfer 4 days after CDDP administration): 2.8 fold
CDDP concentration at which maximal enhancement of β-gal gene expression occurred (H460 cells; [5]): 0.062 µg/mL
Time of gene transfer after drug treatment for maximal enhancement (H460 cells; CDDP 0.062 μg/ml): about 48 hours
Enhancement of β-gal gene expression (H460 cells; [6]): also an enhancement
p53 immunocytochemical staining [2]: almost all of the CDDP-treated cells stained positive
Effect on cell growth in vitro (H1299 cells [3]; CDDP 0.0625 μg/ml for 24 hrs, alone): no effect on cell growth
Increased inhibition of tumor proliferation compared to cells transfected with Adv/CMV/p53 only (H1299 cells [3]; day 3 after p53 transfer): 61%
Increased inhibition of tumor proliferation compared to cells transfected with Adv/CMV/p53 only (H1299 cells [3]; day 5 after p53 transfer): 55%
CDDP concentration at which maximal enhancement of β-gal gene expression occurred (H1299 cells [4]; [5]): 0.062 µg/mL
Time of gene transfer after drug treatment for maximal enhancement (H1299 cells [4]; CDDP 0.062 μg/ml): about 48 hours
Enhancement of β-gal gene expression (H1299 cells [4]; [6]): also an enhancement
Enhancement of β-gal expression (FIG. 3) (H1299 cells [4]; drugs at 0.062 μg/ml or irradiated with 8 Greys, stained 24 hrs after infection): Enhancement of β-gal expression was observed
Magnitude of maximal enhancement of transgene expression (FIG. 4B) (H1299 cells [4]; gene transfer 48 hours after exposure to 0.062 μg/ml of CDDP): 2.7 fold
